pIC50: −log10 of the molar value.
Tests used:
IKKε = IKKε (Homo sapiens (Human), UniProt Q14164); assay: TR-FRET kinase assay, IKKε; format: biochemical; details: full length recombinant IKKε 0.3 nM, 2x Km ATP, 1 μM peptide, 240 min at 25° C.; geometric mean of minimum four determinations
From the text: Biological Assay for TBK1 and IKKs:

TBK1 = TBK1 (Homo sapiens (Human), UniProt Q9UHD2); assay: TR-FRET kinase assay, TBK1; details: read-out: TBK1-IC50; full length recombinant TBK1 2.5 nM, 2x Km ATP, 1 μM peptide, 240 min at 25° C.; geometric mean of minimum four determinations
Chain of TBK1 (Q9UHD2 whole entry): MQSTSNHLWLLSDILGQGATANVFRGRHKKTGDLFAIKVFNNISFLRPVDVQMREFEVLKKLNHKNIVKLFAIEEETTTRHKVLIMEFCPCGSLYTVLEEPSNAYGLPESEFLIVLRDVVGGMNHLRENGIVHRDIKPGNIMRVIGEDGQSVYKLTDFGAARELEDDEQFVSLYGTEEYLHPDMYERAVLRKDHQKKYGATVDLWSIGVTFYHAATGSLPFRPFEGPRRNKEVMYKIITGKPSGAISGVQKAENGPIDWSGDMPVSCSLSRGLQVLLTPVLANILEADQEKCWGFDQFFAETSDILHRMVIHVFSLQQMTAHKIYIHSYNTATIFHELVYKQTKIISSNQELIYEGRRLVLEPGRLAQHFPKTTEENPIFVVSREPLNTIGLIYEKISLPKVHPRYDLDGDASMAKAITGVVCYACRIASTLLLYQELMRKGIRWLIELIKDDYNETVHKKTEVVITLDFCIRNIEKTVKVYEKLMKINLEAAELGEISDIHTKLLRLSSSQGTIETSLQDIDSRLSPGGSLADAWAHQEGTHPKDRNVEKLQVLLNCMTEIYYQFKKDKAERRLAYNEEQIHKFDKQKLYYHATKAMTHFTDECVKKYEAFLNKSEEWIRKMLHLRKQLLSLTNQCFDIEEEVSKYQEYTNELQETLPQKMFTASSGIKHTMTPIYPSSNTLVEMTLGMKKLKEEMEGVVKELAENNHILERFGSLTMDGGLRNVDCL

Chain of IKKε (Q14164 whole entry): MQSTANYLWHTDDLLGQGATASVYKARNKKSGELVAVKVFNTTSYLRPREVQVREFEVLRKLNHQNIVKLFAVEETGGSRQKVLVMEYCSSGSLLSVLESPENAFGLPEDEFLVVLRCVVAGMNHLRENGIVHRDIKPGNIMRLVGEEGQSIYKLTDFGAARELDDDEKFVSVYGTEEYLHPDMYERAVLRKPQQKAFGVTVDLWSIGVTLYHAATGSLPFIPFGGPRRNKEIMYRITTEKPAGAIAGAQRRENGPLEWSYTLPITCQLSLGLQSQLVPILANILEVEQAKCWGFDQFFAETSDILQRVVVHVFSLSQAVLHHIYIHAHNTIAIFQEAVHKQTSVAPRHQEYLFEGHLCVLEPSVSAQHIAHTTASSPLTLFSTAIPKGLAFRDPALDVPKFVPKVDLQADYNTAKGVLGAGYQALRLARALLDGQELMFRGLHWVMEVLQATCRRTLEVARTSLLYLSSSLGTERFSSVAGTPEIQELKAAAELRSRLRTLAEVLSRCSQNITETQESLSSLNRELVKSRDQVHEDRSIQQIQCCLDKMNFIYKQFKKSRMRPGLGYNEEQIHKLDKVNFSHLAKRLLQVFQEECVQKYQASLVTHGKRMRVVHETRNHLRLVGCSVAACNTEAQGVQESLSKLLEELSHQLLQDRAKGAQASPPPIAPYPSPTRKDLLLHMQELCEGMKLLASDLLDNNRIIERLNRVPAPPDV

Structure (SMILES)	pIC50 (IKKε)	pIC50 (TBK1)
N#Cc1cc(-c2ncnc3[nH]c(-c4ccc(OCCN5CCCC5)cc4)cc23)ccc1OCC1CC1 [Example 138, 2-(cyclopropylmethoxy)-5-(6-(4-(2-(pyrrolidin-1-yl)ethoxy)phenyl)-7H-pyrrolo[2,3-d]pyrimidin-4-yl)benzonitrile]	8.41	8.23
CC(C)(O)c1ccc(-c2nc3c(-c4ccc(OC5CCOCC5)c(C#N)c4)ncnc3[nH]2)cc1 [Example 228, 5-(8-(4-(2-hydroxypropan-2-yl)phenyl)-9H-purin-6-yl)-2-((tetrahydro-2H-pyran-4-yl)oxy)benzonitrile]	7.84	8.79
C[C@H](O)C(=O)N1CCC(Oc2ccc(-c3ncnc4[nH]c(-c5ccc(N6CCOCC6)cc5)nc34)cc2C#N)CC1 [Example 234, (S)-2-((1-(2-hydroxypropanoyl)piperidin-4-yl)oxy)-5-(8-(4-morpholinophenyl)-9H-purin-6-yl)benzonitrile]	8.06	8.63
N#Cc1cc(-c2ncnc3[nH]c(-c4ccc(OC(F)(F)F)cc4)cc23)ccc1OC1CCN(C(=O)CO)CC1 [Example 128, 2-((1-(2-hydroxyacetyl)piperidin-4-yl)oxy)-5-(6-(4-(trifluoromethoxy)phenyl)-7H-pyrrolo[2,3-d]pyrimidin-4-yl)benzonitrile]	7.87	8.38
N#Cc1cc(-c2ccnc3[nH]c(-c4ccc(N5CCOCC5)cc4)cc23)ccc1N1CCCC1=O [Example 13, 5-(2-(4-morpholinophenyl)-1H-pyrrolo[2,3-b]pyridin-4-yl)-2-(2-oxopyrrolidin-1-yl)benzonitrile]	6.74	7.60
N#Cc1cc(-c2ccnc3[nH]c(-c4ccc(N5CCOCC5)cc4)nc23)ccc1O[C@@H]1CCN(C(=O)CO)C1 [Example 196, (R)-2-((1-(2-hydroxyacetyl)pyrrolidin-3-yl)oxy)-5-(2-(4-morpholinophenyl)-3H-imidazo[4,5-b]pyridin-7-yl)benzonitrile]	7.89	8.35
CC(C)(C)OC(=O)N1CCC(Oc2ccc(-c3ccnc4[nH]c(-c5ccc(N6CCOCC6)cc5)cc34)cc2C#N)CC1 [Example 21, tert-butyl 4-(2-cyano-4-(2-(4-morpholinophenyl)-1H-pyrrolo[2,3-b]pyridin-4-yl)phenoxy)piperidine-1-carboxylate]	< 6.00	6.16
CN1CCN(C(=O)c2ccc(-c3cc4c(-c5ccc(OC6CCN(C(=O)CO)CC6)c(C#N)c5)ncnc4[nH]3)cc2)CC1 [Example 161, 2-((1-(2-Hydroxyacetyl)piperidin-4-yl)oxy)-5-(6-(4-(4-methylpiperazine-1-carbonyl)phenyl)-7H-pyrrolo[2,3-d]pyrimidin-4-yl)benzonitrile]	8.95	8.81
N#Cc1cc(-c2cnnc3[nH]c(-c4ccc(N5CCOCC5)cc4)nc23)ccc1OC1CCOCC1 [Example 401, 5-(8-(4-morpholinophenyl)-9H-imidazo[4,5-c]pyridazin-6-yl)-2-((tetrahydro-2H-pyran-4-yl)oxy)benzonitrile]	< 6.00	< 6.00
N#Cc1cc(-c2ccnc3[nH]c(-c4cnn(C5CNC5)c4)cc23)ccc1OC1CCOCC1 [Example 9, 5-(2-(1-(azetidin-3-yl)-1H-pyrazol-4-yl)-1H-pyrrolo[2,3-b]pyridin-4-yl)-2-((tetrahydro-2H-pyran-4-yl)oxy)benzonitrile]	8.85	8.62
N#Cc1cc(-c2ccnc3[nH]c(C(=O)N4CCCC4)cc23)ccc1OC1CCOCC1 [Example 117, 5-(2-(pyrrolidine-1-carbonyl)-1H-pyrrolo[2,3-b]pyridin-4-yl)-2-((tetrahydro-2H-pyran-4-yl)oxy)benzonitrile]	6.58	6.42
O=C1NCc2cc(-c3ncnc4[nH]c(-c5ccc(N6CCOCC6)cc5)cc34)ccc21 [Example 221, 5-(6-(4-morpholinophenyl)-7H-pyrrolo[2,3-d]pyrimidin-4-yl)isoindolin-1-one]	6.00	6.00
CN(C)CC(=O)N1CC[C@@H](Oc2ccc(-c3ccnc4[nH]c(-c5ccc(N6CCOCC6)cc5)cc34)cc2C#N)C1 [Example 30, (R)-2-((1-(2-(dimethylamino)acetyl)pyrrolidin-3-yl)oxy)-5-(2-(4-morpholinophenyl)-1H-pyrrolo[2,3-b]pyridin-4-yl)benzonitrile]	6.87	7.15
N#Cc1cc(-c2ncnc3[nH]c(Nc4cccc(N5CCOCC5)c4)nc23)ccc1OC1CCOCC1 [Example 194, 5-(8-((3-morpholinophenyl)amino)-9H-purin-6-yl)-2-((tetrahydro-2H-pyran-4-yl)oxy)benzonitrile]	6.25	6.53
N#Cc1cc(-c2ncnc3[nH]c(-c4cccc(Cn5ccnc5)c4)cc23)ccc1OC1CCOCC1 [Example 119, 5-(6-(3-((1H-imidazol-1-yl)methyl)phenyl)-7H-pyrrolo[2,3-d]pyrimidin-4-yl)-2-((tetrahydro-2H-pyran-4-yl)oxy)benzonitrile]	8.91	8.91
CC(C)(O)c1cccc(-c2cc3c(-c4ccc(OC5CCOCC5)c(C#N)c4)ccnc3[nH]2)c1 [Example 68, 5-(2-(3-(2-hydroxypropan-2-yl)phenyl)-1H-pyrrolo[2,3-b]pyridin-4-yl)-2-((tetrahydro-2H-pyran-4-yl)oxy)benzonitrile]	7.65	7.98
N#Cc1cc(-c2ncnc3[nH]c(-c4ccc(N5CCOCC5)cc4)cc23)ccc1CN1CCCC1=O [Example 115, 5-(6-(4-morpholinophenyl)-7H-pyrrolo[2,3-d]pyrimidin-4-yl)-2-((2-oxopyrrolidin-1-yl)methyl)benzonitrile]	6.00	7.34
N#Cc1cc(-c2ccnc3[nH]c(-c4ccc(N5CCN(C6COC6)CC5)cc4)cc23)ccc1OC1CCOCC1 [Example 85, 5-(2-(4-(4-(oxetan-3-yl)piperazin-1-yl)phenyl)-1H-pyrrolo[2,3-b]pyridin-4-yl)-2-((tetrahydro-2H-pyran-4-yl)oxy)benzonitrile]	8.46	8.88
C=C(C)c1ccc(-c2cc3c(-c4ccc(O[C@@H]5CCN(C(=O)CO)C5)c(C#N)c4)ccnc3[nH]2)cc1 [Example 150, (R)-2-((1-(2-hydroxyacetyl)pyrrolidin-3-yl)oxy)-5-(2-(4-(prop-1-en-2-yl)phenyl)-1H-pyrrolo[2,3-b]pyridin-4-yl)benzonitrile]	7.73	7.95
N#Cc1cc(-c2ncnc3[nH]c(-c4ccc(N5CCOCC5)cc4)nc23)ccc1OC1CCN(C=O)CC1 [Example 250, 2-((1-formylpiperidin-4-yl)oxy)-5-(8-(4-morpholinophenyl)-9H-purin-6-yl)benzonitrile]	8.01	8.65
N#Cc1cc(-c2ncnc3[nH]c(-c4ccc(N5CCOCC5)nc4)nc23)ccc1OC1CCOCC1 [Example 243, 5-(8-(6-morpholinopyridin-3-yl)-9H-purin-6-yl)-2-((tetrahydro-2H-pyran-4-yl)oxy)benzonitrile]	6.00	7.94
N#Cc1cc(-c2ncnc3[nH]c(-c4ccc(N5CCOCC5)c(F)c4)cc23)ccc1OC1CCOCC1 [Example 156, 5-(6-(3-fluoro-4-morpholinophenyl)-7H-pyrrolo[2,3-d]pyrimidin-4-yl)-2-((tetrahydro-2H-pyran-4-yl)oxy)benzonitrile]	7.85	8.56
